In one data set the target is T1, GluA4 (Mus musculus, UniProt Q9Z2W8).
T1 construct: expressed in transfected cells; host or cells: HEK293T
As to the kind of experiment: Concentration-dependent binding of PFQX1(AF488), confocal live imaging of HEK293T cells expressing GluA4. The note with it: n = 3, read-out: Kd / Affinity of PFQX1(AF488) to GluA4. The method, then:
(§1) HEK293T cells were cotransfected with plasmids for AMPAR [5′UTR-GluA1^flip(R)-3′UTR, GluA2^flip(Q)-3′UTR, GluA3^flip(Q) (Y454A/R461G), and GluA4^flip(Q)], kainate receptor [GluK2(Q)], auxiliary subunits, or the control vector and transfection marker (EFGP-F or mCherry-F). Fluorophore-ligand conjugates were diluted in Hepes-buffered saline (HBS) buffer [20 mM Hepes (pH 7.4), 107 mM NaCl, 6 mM KCl, 1.2 mM MgSO4, 2 mM CaCl2, and 11.5 mM glucose] and added to the cells. Confocal live imaging was performed with LSM900 (Carl Zeiss) equipped with a 63×, numerical aperture (NA) = 1.4 oil-immersion objective. Fluorescence images were acquired by excitation at 405, 488, 561, or 640 nm derived from diode lasers.
For evaluating the concentration dependency of fluorophore-ligand conjugates, 0.1 nM probe in HBS was added to the dish. Then, probes in HBS were added stepwise to the dish to a final concentration of 0.3, 1, 3, 10, 30, 100, 300, 1000, and 3000 nM. Cell surface fluorescence intensity was quantified from the line scans of transfection marker positive cells and calculated with subtraction of background by ZEN blue software (Carl Zeiss). The membrane intensity was fitted with KaleidaGraph (Synergy software) to calculate the equilibrium constant value using the following equation: a + (b − a)/(1 + (x/c)^d). The equilibrium constant is regarded as the Kd in this study.

A further data set addresses T2, GluA2flip(R) + GSG1L (Mus musculus, UniProt P23819, DEL765-802/Q607R).
T2 construct: expressed in transfected cells; host or cells: HEK293T
In words: Concentration-dependent binding of PFQX1(AF488) to GluA2flip(R) expressed with GSG1L in HEK293T cells. To be noted: n = 3–4, read-out: Kd / Affinity of PFQX1(AF488) to GluA2flip(R) with GSG1L. The method, then:
as §1
For evaluating the concentration dependency of fluorophore-ligand conjugates, 0.1 nM probe in HBS was added to the dish. Then, probes in HBS were added stepwise to the dish to a final concentration of 0.3, 1, 3, 10, 30, 100, 300, 1000, and 3000 nM. Cell surface fluorescence intensity was quantified from the line scans of transfection marker positive cells and calculated with subtraction of background by ZEN blue software (Carl Zeiss). […]
(A) Concentration-dependent binding of PFQX1(AF488) to GluA2 flip(R) expressed with GSG1L or TARP γ7. […] (B) The surface intensity of PFQX1(AF488) was quantified. […]

A further data set concerns the target T3, GluA2flip(R) + TARP γ7 (Mus musculus, UniProt P23819, DEL765-802/Q607R).
T3 construct: expressed in transfected cells; host or cells: HEK293T
In words: Concentration-dependent binding of PFQX1(AF488) to GluA2flip(R) expressed with TARP γ7 in HEK293T cells. To be noted: n = 3–4, read-out: Kd / Affinity of PFQX1(AF488) to GluA2flip(R) with TARP γ7. The method, then:
HEK293T cells (American Type Culture Collection) were cultured in Dulbecco’s modified Eagle’s medium (DMEM)–GlutaMAX (Invitrogen) supplemented with 10% fetal bovine serum (FBS) (Sigma-Aldrich), penicillin (100 U ml^−1), and streptomycin (100 μg ml^−1) and incubated in a 5% CO2 humidified chamber at 37°C. Cells were transfected with a plasmid using Lipofectamine 3000 (Invitrogen) according to the manufacturer’s instructions. Twenty-four hours after transfection, the cells were seeded on glass-bottom dishes coated with poly-L-lysine solution and incubated for 24 hours except for GluA4, TARP γ7, and GluK2. For GluA4, TARP γ7, and GluK2 expression, the cells were used 24 hours after transfection. […]
HEK293T cells were cotransfected with plasmids for AMPAR [5′UTR-GluA1^flip(R)-3′UTR, GluA2^flip(Q)-3′UTR, GluA3^flip(Q) (Y454A/R461G), and GluA4^flip(Q)], kainate receptor [GluK2(Q)], auxiliary subunits, or the control vector and transfection marker (EFGP-F or mCherry-F). […] Fluorescence images were acquired by excitation at 405, 488, 561, or 640 nm derived from diode lasers.
For evaluating the concentration dependency of fluorophore-ligand conjugates, 0.1 nM probe in HBS was added to the dish. […] Cell surface fluorescence intensity was quantified from the line scans of transfection marker positive cells and calculated with subtraction of background by ZEN blue software (Carl Zeiss). […]

Data set [1] in a line: Solubility of PFQX(Dye)s in HBS. Format: physicochemical. To be noted: aqueous buffer; dissolved in HBS. The method, then:
aAffinity was evaluated in HEK293T cells expressing GluA2 flip(Q).
S3A. bPFQX(Dye)sweredissolved in HBS.
cAffinity to native AMPARs were evaluated usingprimary cultured hippocampal

The test system of data set [2] is AMPARs. In words: Kinetics and reversibility of PFQX1(AF488) binding in cultured hippocampal neurons. Also noted: species or system mouse. The note with it: 100 nM probe. The method, then:
A cloning ring (16 mm φ) was placed on the dish to accelerate the diffusion of the probe solution. After the dish was set on the stage, the cells were treated with 100 nM PFQX1(AF488) and imaged at specified time points by confocal microscopy.
For evaluating reversibility, stained cells were observed by confocal microscopy as the first image. Then, the cells were washed three times with Hepes-based ACSF and scanned as the wash image. After removal of the buffer, 100 nM PFQX1(AF488) was re-treated, and the cells were scanned as the second image. To quantify the fluorescence intensity of spines, the average signal intensity of ROIs set on spines was calculated by ZEN blue software after subtracting background fluorescence.

Data set [3] deals with AMPARs. In words: Staining of AMPARs in acute cerebellar slices. Format: binding, mouse. To be noted: 30 nM probe; acute cerebellar slices; incubation at least 5 min. The method, then: following secondary antibodies were used: donkey anti-mouse CF568 conjugated (Sigma, […]
1:1,000) and anti-rabbit Alexa Fluor Plus 488 conjugated (Invitrogen, A32731, 1,000).
Imaging was performed with confocal microscopy.
With two-step labeling, the cells were labeled as described in “Two -step labeling and PFQX1(AF488)staining in cultured neurons,” followed by immunostaining.
In fig. S9A, the cells were incubated with 500 nM CellTracker Red CMPTX (Invitrogen) instead of Calcein Red AM for 30 min at 37 °C to visualize the intracellular region before the immunostaining.
Preparation and staining of cerebellar acute brain slices
C57BL/6J mice (3 weeks) were anesthetized with isoflurane, and their brains were isolated and immediately transferred to ice-cold cutting solution buffer (120 mM Choline Chloride, 3 mM KCl, 8 mM MgCl2, 1.25 mM NaH2PO4, 28 mM NaHCO3, 22 mM Glucose, and 0.5 mM Sodium ascorbate) gassed with 5% CO2 and 95% O2 and incubated for 5 min. Sagittal cerebellar slices were cut with a microslicer (Neo-linear slicer NLS-MT; DOSAKA EM) in cutting solution buffer and then incubated in ACSF […]
NaHCO3, 10 mM Glucose) gassed with 5% CO 2 and 95% O 2 at 37 °C.
Acute slices were transferred to glass bottom dishes and treated with 30 nM PFQX1(AF488) in HEPES-based ACSF for 5 min. […]
Scale bars, 500 µm. (F) Quantification of probe intensity in Ε. […]

For orientation: solubility means the concentration that dissolves in the medium under given conditions.

T1 sequence (Q9Z2W8 21-902): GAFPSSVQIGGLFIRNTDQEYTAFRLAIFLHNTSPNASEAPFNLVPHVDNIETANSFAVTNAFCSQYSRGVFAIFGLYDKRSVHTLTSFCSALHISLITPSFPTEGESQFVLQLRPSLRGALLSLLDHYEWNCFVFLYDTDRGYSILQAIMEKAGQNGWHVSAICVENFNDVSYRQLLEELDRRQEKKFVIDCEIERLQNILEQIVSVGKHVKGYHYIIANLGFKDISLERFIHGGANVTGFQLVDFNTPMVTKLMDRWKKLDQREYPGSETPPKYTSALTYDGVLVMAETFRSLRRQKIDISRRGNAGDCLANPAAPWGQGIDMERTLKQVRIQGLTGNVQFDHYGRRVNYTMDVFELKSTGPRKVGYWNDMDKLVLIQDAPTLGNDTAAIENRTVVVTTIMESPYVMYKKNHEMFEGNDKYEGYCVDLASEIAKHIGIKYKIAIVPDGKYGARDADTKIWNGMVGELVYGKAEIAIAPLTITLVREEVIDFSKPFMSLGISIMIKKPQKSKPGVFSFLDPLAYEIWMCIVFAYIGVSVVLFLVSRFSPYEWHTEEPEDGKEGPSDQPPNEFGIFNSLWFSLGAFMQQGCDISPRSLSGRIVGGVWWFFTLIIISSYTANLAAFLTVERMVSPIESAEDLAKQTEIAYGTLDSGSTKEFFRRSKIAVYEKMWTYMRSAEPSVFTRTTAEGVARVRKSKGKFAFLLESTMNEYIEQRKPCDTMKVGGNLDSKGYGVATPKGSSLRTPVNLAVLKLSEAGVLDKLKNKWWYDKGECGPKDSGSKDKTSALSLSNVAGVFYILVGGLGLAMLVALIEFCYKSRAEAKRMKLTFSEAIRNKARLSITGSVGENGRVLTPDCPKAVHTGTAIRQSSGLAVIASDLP
T3 sequence (P23819 with tags, fused parts or gaps isoform P23819-4 Q607R/DEL765-802): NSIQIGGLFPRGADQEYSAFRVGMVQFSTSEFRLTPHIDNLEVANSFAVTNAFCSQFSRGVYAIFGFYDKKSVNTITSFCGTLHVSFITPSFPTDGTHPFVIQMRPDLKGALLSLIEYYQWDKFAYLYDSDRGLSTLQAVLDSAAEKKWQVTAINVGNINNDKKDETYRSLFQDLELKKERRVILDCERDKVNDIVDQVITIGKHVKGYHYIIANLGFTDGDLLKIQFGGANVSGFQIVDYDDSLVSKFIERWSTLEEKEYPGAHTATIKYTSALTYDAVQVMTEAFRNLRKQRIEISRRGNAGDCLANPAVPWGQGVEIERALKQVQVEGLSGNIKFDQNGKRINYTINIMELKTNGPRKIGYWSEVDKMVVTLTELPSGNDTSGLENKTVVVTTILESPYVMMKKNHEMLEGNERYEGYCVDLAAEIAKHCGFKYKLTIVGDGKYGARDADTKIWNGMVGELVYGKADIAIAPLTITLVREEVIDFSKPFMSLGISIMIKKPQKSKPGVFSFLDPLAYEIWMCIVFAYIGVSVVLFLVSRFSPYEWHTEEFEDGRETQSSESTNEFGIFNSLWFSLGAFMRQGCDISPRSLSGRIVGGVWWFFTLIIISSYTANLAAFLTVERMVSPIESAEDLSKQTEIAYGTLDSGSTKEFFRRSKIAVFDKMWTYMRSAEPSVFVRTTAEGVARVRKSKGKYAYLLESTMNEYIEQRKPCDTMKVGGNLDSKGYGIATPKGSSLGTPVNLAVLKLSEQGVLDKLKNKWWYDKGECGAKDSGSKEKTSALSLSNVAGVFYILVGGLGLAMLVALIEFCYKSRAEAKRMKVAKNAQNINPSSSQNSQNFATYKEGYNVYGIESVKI
T3 sequence (P62956 whole entry partner): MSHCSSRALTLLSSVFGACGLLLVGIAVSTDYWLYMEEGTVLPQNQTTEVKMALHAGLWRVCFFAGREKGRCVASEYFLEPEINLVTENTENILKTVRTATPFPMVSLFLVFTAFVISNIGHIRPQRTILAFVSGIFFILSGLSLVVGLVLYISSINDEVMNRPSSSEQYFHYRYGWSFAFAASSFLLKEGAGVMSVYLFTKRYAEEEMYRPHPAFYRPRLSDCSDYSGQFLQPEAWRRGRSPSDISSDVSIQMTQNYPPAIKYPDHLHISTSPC
T2 sequence (P23819 with tags, fused parts or gaps isoform P23819-4 Q607R/DEL765-802): as the sequence (P23819 with tags, fused parts or gaps isoform P23819-4 Q607R/DEL765-802) above
T2 sequence (D3Z7H4 whole entry partner): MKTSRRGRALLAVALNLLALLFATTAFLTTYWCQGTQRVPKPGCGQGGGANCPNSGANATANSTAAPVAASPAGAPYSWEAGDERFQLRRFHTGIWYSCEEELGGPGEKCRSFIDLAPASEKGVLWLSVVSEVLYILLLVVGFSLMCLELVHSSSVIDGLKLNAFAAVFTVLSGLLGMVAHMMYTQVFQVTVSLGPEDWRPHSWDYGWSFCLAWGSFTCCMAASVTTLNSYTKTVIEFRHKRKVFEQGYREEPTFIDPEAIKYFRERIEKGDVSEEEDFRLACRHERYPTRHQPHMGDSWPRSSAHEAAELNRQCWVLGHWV

Regarding `N=c1ccc2c(-c3ccc(C(=O)NCc4ccn(-c5cc6c(cc5C(F)(F)F)[nH]c(=O)c(=O)n6CC(=O)O)c4)cc3C(=O)O)c3ccc(N)c(S(=O)(=O)O)c3oc-2c1S(=O)(=O)O` [PFQX1(AF488)], the figures for the Kd at GluA4, on GluA2flip(R) + GSG1L and on GluA2flip(R) + TARP γ7 were 20.2 ± 1.2 nM, 34.5 ± 12.4 nM and 118 ± 44.7 nM, respectively. For the same compound, the solubility in data set [1] is > 1470 µM. Moreover, the “reversibility of binding (medium exchange)” value in the data set on AMPARs [2] is listed as “easily removed by medium exchange”. In addition, the “time to saturation of fluorescent signals after probe addition” value in the data set with AMPARs [2] amounted to 10 s. Further, the “reversibility of binding (medium exchange) in slices” value in the data set with AMPARs [3] is on record as “can be washed out by the medium exchange”.

Source of the values: publication PMC12143348, “Rapid and reversible fluorescent probe enables repeated snapshot imaging of AMPA receptors during synaptic plasticity” (Science Advances, 2025).
